Data from article PMC3899824 (Investigational new drugs, 2013).
Like-named read-outs stand apart in the source and are kept apart here. *: point of attachment. Cbz = O=C(OCc1ccccc1)*; CH2F = FC*

Legend:
[1] = system: tubulin; test: Cell-free tubulin polymerization assay; type: biochemical; conditions: 60m at 340 nm
[2] = system: 8226/S multiple myeloma cells; test: Apoptosis by AnnexinV/PI flow cytometry, 8226/S; type: cell-based, human
[3] = system: MM.1S multiple myeloma cells; test: Apoptosis by AnnexinV/PI flow cytometry, MM.1S; type: cell-based, human
[4] = system: 8226/S myeloma cells; conditions: read-out: IC50, nM (Mean ± SEM), 72h, MTT
[5] = system: 8226/IM10 myeloma cells (imexon-resistant); conditions: read-out: IC50, nM (Mean ± SEM); 8226/IM10, 72h, MTT
[6] = system: 8226/Dox40 myeloma cells (MDR-1 overexpressing); conditions: read-out: IC50, nM (Mean ± SEM); 8226/Dox40, 72h, MTT
[7] = system: NIH-H929 myeloma cells; conditions: read-out: IC50, nM (Mean ± SEM); NIH-H929, 72h, MTT
[8] = system: MM.1S myeloma cells; conditions: read-out: IC50, nM (Mean ± SEM), 72h, MTT
[9] = system: U266 myeloma cells; conditions: read-out: IC50, nM (Mean ± SEM); U266, 72h, MTT
[10] = system: OCI-AML3 leukemia cells; conditions: read-out: IC50, nM (Mean ± SEM); OCI-AML3, 72h, MTT
[11] = system: MV-4-11 leukemia cells; conditions: read-out: IC50, nM (Mean ± SEM); MV-4-11, 72h, MTT
[12] = system: MiaPaCa-2 pancreatic cells; conditions: read-out: IC50, nM (Mean ± SEM); MiaPaCa-2, 72h, MTT
[13] = system: Panc-1 pancreatic cells; conditions: read-out: IC50, nM (Mean ± SEM); Panc-1, 72h, MTT
[14] = system: BxPC-3 pancreatic cells; conditions: read-out: IC50, nM (Mean ± SEM); BxPC-3, 72h, MTT
[15] = system: MDA-MB231 breast cells; conditions: read-out: IC50, nM (Mean ± SEM); MDA-MB231, 72h, MTT
[16] = system: MCF-7 breast cells; conditions: read-out: IC50, nM (Mean ± SEM); MCF-7, 72h, MTT
[17] = system: PC-3 prostate cells; conditions: read-out: IC50, nM (Mean ± SEM); PC-3, 72h, MTT
[18] = system: DU-145 prostate cells; conditions: read-out: IC50, nM (Mean ± SEM); DU-145, 72h, MTT
[19] = system: HCT-116 colon cells; conditions: read-out: IC50, nM (Mean ± SEM); HCT-116 parental, 72h, MTT
[20] = system: HCT-116 DPC4 (−/−) colon cells
[21] = system: H69S small cell lung cancer cells; conditions: read-out: IC50, nM (Mean ± SEM), 72h, MTT
[22] = system: H929 multiple myeloma cells; conditions: H929, 24h, 25-100 nM
[23] = system: MM.1S multiple myeloma cells; conditions: 24h, 25-100 nM
[24] = system: U266 multiple myeloma cells; conditions: U266, 24h, 25-100 nM
[25] = system: 8226/S multiple myeloma cells; conditions: 24h, 25-100 nM
[26] = system: 8226/S multiple myeloma cells
[27] = system: MM.1S multiple myeloma cells
[28] = system: OCI-AM-3 (Acute Myeloid Leukemia) human tumor xenograft; conditions: 55 mg/kg IP, Dailyx5, off 5d, repeat 1×
[29] = system: MV-4-11 (Acute Myeloid Leukemia) human tumor xenograft; conditions: 55 mg/kg IP, Dailyx5, off 5d, repeat 2×
[30] = system: DU-145 (Prostate Cancer) human tumor xenograft; conditions: 55 mg/kg IP, Dailyx5, off 7d, repeat 2×
[31] = system: PC-3 (Prostate Cancer) human tumor xenograft; conditions: 55 mg/kg IP, Dailyx5, off 5d, repeat 1×
[32] = 50–55 mg/kg IP, daily × 5 days, 5 to 7 days off, 2–3 courses
[33] = SCID mice; for AUC: variance per Yuan in brackets
[34] = not given; remark: listed apart in the source
[35] = system: DPC4 (-/-) BxPC3 pancreatic cancer cell line vs DPC4 (+/+) isogenic cell line; conditions: cited from earlier work
[36] = system: human MiaPaCa-2 pancreatic cancer cell line xenograft; conditions: SCID mice bearing MiaPaCa-2 flank tumors; cited from earlier work
[37] = target: TRK-B; conditions: at pharmacologically-achievable concentrations; cited from earlier work
[38] = target: PDGF-alpha; conditions: at pharmacologically-achievable concentrations; cited from earlier work
[39] = target: PDGF-beta; conditions: at pharmacologically-achievable concentrations; cited from earlier work
[40] = target: FLT-1; conditions: FLT-1, at pharmacologically-achievable concentrations; cited from earlier work
[41] = system: human pancreatic cancer cells; conditions: cited from earlier work
[42] = system: 8226/S (Multiple Myeloma) human tumor xenograft; test: Xenograft efficacy, 8226/S; conditions: 50 mg/kg IP
[43] = system: caspases 3, 8 and 9 in MM.1S cells; test: Western blot of caspases 3, 8 and 9; conditions: 24h, 0 – 500 nM
[44] = system: 8226/Dox40 cell line; conditions: no reference given; cited from earlier work
[45] = 200 nM PC-046 24h, without active caspase inhibitor
[46] = 5 μM pan-caspase inhibitor 30m before 200 nM PC-046 24h
[47] = colcemid-treated, concentration not given
[48] = 5 μM caspase 8 inhibitor 30m before 200 nM PC-046 24h

COc1ccc(-c2cnc(-c3ccncc3-c3cccc(OC)c3)o2)cc1 [PC-046, 5-(4-methoxyphenyl)pyridine-4-yl]
effect on tubulin polymerization ([1]; 5 μM): inhibits tubulin polymerization | AnnexinV-positive cells [2, 45]: 30.7% | AnnexinV-positive cells [3, 45]: 32.6% | IC50 [4]: 134 ± 13.8 nM | IC50 [5]: 102 ± 27.5 nM | IC50 [6]: 188 ± 6.1 nM | IC50 [7]: 163 ± 13.9 nM | IC50 [8]: 162 ± 39.6 nM | IC50 [9]: 70.1 ± 16.2 nM | IC50 [10]: 177 ± 31.8 nM | IC50 [11]: 193 ± 10.8 nM | IC50 [12]: 296 ± 72.1 nM | IC50 [13]: 215 ± 49.4 nM | IC50 [14]: 199 ± 48.2 nM | IC50 [15]: 206 ± 49.2 nM | IC50 [16]: 166 ± 26.3 nM | IC50 [17]: 105 ± 30.2 nM | IC50 [18]: 160 ± 39.4 nM | IC50 [19]: 99.5 ± 15.8 nM | increased activity for the DPC4 (-/-) HCT-116 cell line compared to the wild type HCT-116 cells ([20]; ratio of IC50 values): roughly 2 fold | IC50 ([20]; read-out: IC50, nM (Mean ± SEM), HCT-116 DPC4 (−/−), 72h, MTT): 52 ± 5.3 nM | IC50 [21]: 240 ± 10.9 nM | cell cycle effect (DNA content) [22]: accumulation of cells in the G2/M-phase | cell cycle effect (DNA content) [23]: accumulation of cells in the G2/M-phase | cell cycle effect (DNA content) [24]: accumulation of cells in the G2/M-phase | cell cycle effect (DNA content) [25]: significant accumulation of cells in S-phase | % positive histone H3 cells, mean (SEM) ([26]; 150 nM PC-046, 16h, baseline 3.31 (0.14)): 34.70 (5.84) % | % positive histone H3 cells, mean (SEM) ([27]; 150 nM PC-046, 16h, baseline 3.14 (0.15)): 17.3 (1.28) % | Mean (SD), mm^3, DPC046 (tumor AUC) ([28]; control 17752.6 (8665.6)): 12433.4 (4647.1) mm^3 | Tumor AUC % Change ([28]; vs control, p NS): −29.90% | Mean (SD), mm^3, DPC046 (tumor AUC) ([29]; control 18702.7 (7654.1)): 11309.3 (5293.3) mm^3 | Tumor AUC % Change ([29]; vs control, p 0.0374): −39.50% | Mean (SD), mm^3, DPC046 (tumor AUC) ([30]; control 69969.6 (22735.3)): 45801.8 (23344.4) mm^3 | Tumor AUC % Change ([30]; vs control, p 0.04886): −34.50% | Mean (SD), mm^3, DPC046 (tumor AUC) ([31]; control 10438.6 (4303.9)): 8238.1 (2506.2) mm^3 | Tumor AUC % Change ([31]; vs control, p NS): −21.10% | lethality [32]: no lethality | loss of body weight [32]: about 10% | lethal acute dose (mouse, in vivo): 150 mg/kg | time to death after administration (mouse, in vivo, 150 mg/kg): 2 to 5 days | acutely tolerated dose (single dose, non-tumor bearing mice): 100 mg/kg | Cmax ([33]; 100mg/kg IP): 4010 ng/mL | T ½ ([33]; 100mg/kg IP): 5.17 h | Tmax ([33]; 100mg/kg IP): 0.08 h | AUC ([33]; 100mg/kg IP): 5.22(0.68) ^# hr* μg/mL | Clearance ([33]; 100mg/kg IV): 332 mL/min/kg | Cmax ([33]; 100mg/kg IV): 1660 ng/mL | T ½ ([33]; 100mg/kg IV): 8.40 h | Tmax ([33]; 100mg/kg IV): 0.17 h | Vol. Dist. ([33]; 100mg/kg IV): 240.3 L/kg | AUC ([33]; 100mg/kg IV): 5.02 (0.29) ^# hr* μg/mL | F (bioavailabilty) ([33]; 100mg/kg PO vs IV): 0.71 | Cmax ([33]; 100mg/kg PO): 1550 ng/mL | T ½ ([33]; 100mg/kg PO): 3.17 h | Tmax ([33]; 100mg/kg PO): 0.08 h | AUC ([33]; 100mg/kg PO): 3.55(0.75) ^# hr* μg/mL | oral bioavailability ([33]; 100 mg/kg oral gavage compared to the IV route): 71% | mean PC-046 concentrations in the femurs (bone marrow flushings) ([34]; 30 and 60 minutes after 100 mg/kg IP): approximately 0.07 μg/mL | femur concentrations ([34]; 30 and 60 minutes after 100 mg/kg IP, converted): 195 nM | mean plasma concentration ([34]; 30 minutes after 100 mg/kg IP): 1750 ng/mL | mean plasma concentration ([34]; 45 minutes after 100 mg/kg IP): 1930 ng/mL | mean plasma concentration ([34]; 60 minutes after 100 mg/kg IP): 962 ng/mL | selectivity index previously reported [35]: 1.74 x | activity against flank tumor xenografts [36]: active | kinase inhibition in vitro [37]: inhibit | kinase inhibition in vitro [38]: inhibit | kinase inhibition in vitro [39]: inhibit | kinase inhibition in vitro [40]: inhibit | cell cycle effect [41]: accumulate in G2/M phases | tumor growth inhibition in vivo (in words) ([42]; 8226/S myeloma xenograft): no growth inhibition was observed | Mean (SD), mm^3, DPC046 (tumor AUC) ([42]; 8226/S, Every third day, repeat 10×, control 27292.6 (13688.8)): 28516.9 (9067.3) mm^3 | Tumor AUC % Change ([42]; 8226/S, Every third day, repeat 10×, vs control, p NS): +4.5% | caspase activation by western blot [43]: cleavage of three major caspases, 3, 8, and 9

CC(C)[C@H](NC(=O)c1ccc2ccccc2n1)C(=O)N[C@@H](CC(=O)O)C(=O)COc1c(F)cccc1F [Q-VD-OPh]
AnnexinV-positive cells [2, 46]: 13.5% | AnnexinV-positive cells [3, 46]: 12.8%

CN[C@H]1CCc2cc(OC)c(OC)c(OC)c2-c2ccc(OC)c(=O)cc21 [colcemid, reference compound]
% positive histone H3 cells, mean (SEM) [26, 47]: 39.40 (1.48) % | % positive histone H3 cells, mean (SEM) [27, 47]: 12.54 (0.73) %

CC(=O)O[C@H]1C(=O)[C@@]2(C)[C@H]([C@H](OC(=O)c3ccccc3)[C@]3(O)C[C@H](OC(=O)[C@H](O)[C@@H](NC(=O)c4ccccc4)c4ccccc4)C(C)=C1C3(C)C)[C@]1(OC(C)=O)CO[C@@H]1C[C@@H]2O [paclitaxel]
effect on tubulin polymerization ([1]; 10 μM): stabilized tubulin polymerization

CC[C@]1(O)C[C@H]2CN(CCc3c([nH]c4ccccc34)[C@@](C(=O)OC)(c3cc4c(cc3OC)N(C=O)[C@H]3[C@@](O)(C(=O)OC)[C@H](OC(C)=O)[C@]5(CC)C=CCN6CC[C@]43[C@@H]65)C2)C1 [vincristine]
effect on tubulin polymerization ([1]; 10 μM): a reduction in the amount of tubulin polymer formed | resistance conferred by ABCB1 (Pgp/MDR1) [44]: approximately 200 fold

Cbz-IETD-CH2F
AnnexinV-positive cells [2, 48]: 25.1% | AnnexinV-positive cells [3, 48]: 32.6%
